The target in assay [1] is CDK2/Cyclin E1 complex (Homo sapiens, UniProt P24941). Nature of the assay: CDK2 kinase inhibition assay (Caliper/LabChip EZ Reader). Format: biochemical. Conditions: CDK2/Cyclin E1 0.5 nM, ATP 2 mM, 35 min at 27° C. A digest of the protocol:
(§1)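 Caliper/LabChip mobility-shift kinase assays at 27° C. CDK9/Cyclin T1 8 nM with 2 μM 5-FAM-CDK9tide, 10 mM MgCl2, 15 min; CDK12/Cyclin K 50 nM with 5-FAM-CDK9tide 2 μM, 2 mM MgCl2, 3 hr; CDK2/Cyclin E1 0.5 nM with 5-FAM-CDK7tide 2 μM, 2 mM MgCl2, 35 min; CDK7 35 min.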

The subject of assay [2] is A673 cells. Put plainly: Inhibition of proliferation of A673 cells (CyQUANT, 72 hour). In kind it is cell-based, human. Conditions: read-out: Inhibition of Proliferation of A673 Cells (calculated IC50). A digest of the protocol: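 Human Ewing's sarcoma A673 cells in DMEM + 10% FBS + 1 mM sodium pyruvate, 37 °C, 5% CO2. Compounds in 0.5-log serial dilutions, stated range 4 μM to […], for 72 h. Anti-proliferative effect read with CyQUANT per kit directions.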

The target in assay [3] is CDK7/Cyclin H/MAT1 complex (Homo sapiens, UniProt P50613). Nature of the assay: CDK7 kinase inhibition assay (Caliper/LabChip EZ Reader). Conditions: CDK7/Cyclin H/MAT1 6 nM, ATP 2 mM, 35 min at 27° C. Format: biochemical. A digest of the protocol: as §1
Assay [4] addresses CDK9/Cyclin T1 complex (Homo sapiens, UniProt P50750). Put plainly: CDK9 kinase inhibition assay (Caliper/LabChip EZ Reader). Format: biochemical. Conditions: CDK9/Cyclin T1 8 nM, ATP 2 mM, 15 min at 27° C. The procedure, abridged: as §1
Assay [5] concerns the target T1, CDK12 (aa686-1082)/Cyclin K complex (Homo sapiens, UniProt Q9NYV4).
T1 construct: CDK12 (aa686-1082)/Cyclin K complex
Nature of the assay: CDK12 kinase inhibition assay (Caliper/LabChip EZ Reader). In kind it is biochemical. Conditions: CDK12 (aa686-1082)/Cyclin K 50 nM, ATP 2 mM, 3 hr at 27° C. A digest of the protocol: as §1

Some results are limits rather than exact numbers.

CDK7/Cyclin H/MAT1 complex, sequence (P50613 whole entry): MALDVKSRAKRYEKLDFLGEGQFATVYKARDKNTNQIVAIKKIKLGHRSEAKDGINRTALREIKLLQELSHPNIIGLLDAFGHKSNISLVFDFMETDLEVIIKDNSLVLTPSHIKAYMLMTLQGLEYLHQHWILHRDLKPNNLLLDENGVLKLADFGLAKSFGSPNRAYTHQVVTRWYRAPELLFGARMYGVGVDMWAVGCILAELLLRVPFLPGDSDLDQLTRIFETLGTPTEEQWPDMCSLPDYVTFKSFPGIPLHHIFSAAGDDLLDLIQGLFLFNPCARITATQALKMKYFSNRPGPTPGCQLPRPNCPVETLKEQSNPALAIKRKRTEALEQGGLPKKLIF
CDK7/Cyclin H/MAT1 complex, sequence (P51946 whole entry partner): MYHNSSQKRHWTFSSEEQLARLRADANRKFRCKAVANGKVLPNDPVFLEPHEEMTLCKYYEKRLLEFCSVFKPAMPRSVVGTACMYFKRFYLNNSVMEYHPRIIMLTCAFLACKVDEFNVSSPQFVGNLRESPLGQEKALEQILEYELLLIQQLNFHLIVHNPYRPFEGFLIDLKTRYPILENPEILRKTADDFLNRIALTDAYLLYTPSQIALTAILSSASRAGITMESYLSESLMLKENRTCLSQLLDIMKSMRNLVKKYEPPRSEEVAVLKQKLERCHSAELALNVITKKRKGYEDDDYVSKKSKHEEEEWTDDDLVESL
CDK7/Cyclin H/MAT1 complex, sequence (P51948 whole entry partner): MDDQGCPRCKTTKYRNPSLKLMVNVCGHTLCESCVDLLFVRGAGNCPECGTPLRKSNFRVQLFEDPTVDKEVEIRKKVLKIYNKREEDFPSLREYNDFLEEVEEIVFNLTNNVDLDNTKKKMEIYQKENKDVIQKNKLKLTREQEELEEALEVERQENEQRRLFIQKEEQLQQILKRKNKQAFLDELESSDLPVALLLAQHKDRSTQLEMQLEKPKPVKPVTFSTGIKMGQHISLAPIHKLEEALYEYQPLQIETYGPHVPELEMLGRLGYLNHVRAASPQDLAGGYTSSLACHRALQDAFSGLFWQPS
CDK9/Cyclin T1 complex, sequence (P50750 whole entry, the tested form may be a part): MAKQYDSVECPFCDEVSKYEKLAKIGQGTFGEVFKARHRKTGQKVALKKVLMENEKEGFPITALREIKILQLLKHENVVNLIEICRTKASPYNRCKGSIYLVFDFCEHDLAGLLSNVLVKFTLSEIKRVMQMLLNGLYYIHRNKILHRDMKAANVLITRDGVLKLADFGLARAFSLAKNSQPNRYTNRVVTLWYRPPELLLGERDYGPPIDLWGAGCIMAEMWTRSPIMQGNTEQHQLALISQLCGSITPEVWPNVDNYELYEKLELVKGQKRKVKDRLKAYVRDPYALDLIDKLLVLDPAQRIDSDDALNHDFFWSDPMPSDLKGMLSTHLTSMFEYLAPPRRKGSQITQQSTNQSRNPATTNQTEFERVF
CDK9/Cyclin T1 complex, sequence (O60563 whole entry partner, the tested form may be a part): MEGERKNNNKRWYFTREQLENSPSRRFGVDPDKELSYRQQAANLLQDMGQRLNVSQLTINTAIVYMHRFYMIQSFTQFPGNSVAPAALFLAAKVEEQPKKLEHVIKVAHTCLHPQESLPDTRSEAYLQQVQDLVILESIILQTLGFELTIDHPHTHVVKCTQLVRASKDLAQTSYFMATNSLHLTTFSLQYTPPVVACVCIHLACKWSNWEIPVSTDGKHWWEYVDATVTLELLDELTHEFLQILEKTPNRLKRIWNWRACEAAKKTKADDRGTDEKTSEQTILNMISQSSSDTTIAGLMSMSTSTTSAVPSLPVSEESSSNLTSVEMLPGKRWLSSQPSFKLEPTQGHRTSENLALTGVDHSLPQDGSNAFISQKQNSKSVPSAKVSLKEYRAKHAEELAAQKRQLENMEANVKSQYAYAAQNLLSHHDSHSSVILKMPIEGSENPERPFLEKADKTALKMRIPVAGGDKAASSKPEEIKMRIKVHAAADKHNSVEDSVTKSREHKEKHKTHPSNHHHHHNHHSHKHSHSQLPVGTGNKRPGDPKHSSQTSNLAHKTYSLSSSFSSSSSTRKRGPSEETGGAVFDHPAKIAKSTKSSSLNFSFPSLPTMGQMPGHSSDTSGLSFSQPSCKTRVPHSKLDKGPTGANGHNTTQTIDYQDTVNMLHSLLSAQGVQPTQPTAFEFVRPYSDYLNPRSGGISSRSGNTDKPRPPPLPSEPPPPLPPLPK
T1 sequence (Q9NYV4 686-1082): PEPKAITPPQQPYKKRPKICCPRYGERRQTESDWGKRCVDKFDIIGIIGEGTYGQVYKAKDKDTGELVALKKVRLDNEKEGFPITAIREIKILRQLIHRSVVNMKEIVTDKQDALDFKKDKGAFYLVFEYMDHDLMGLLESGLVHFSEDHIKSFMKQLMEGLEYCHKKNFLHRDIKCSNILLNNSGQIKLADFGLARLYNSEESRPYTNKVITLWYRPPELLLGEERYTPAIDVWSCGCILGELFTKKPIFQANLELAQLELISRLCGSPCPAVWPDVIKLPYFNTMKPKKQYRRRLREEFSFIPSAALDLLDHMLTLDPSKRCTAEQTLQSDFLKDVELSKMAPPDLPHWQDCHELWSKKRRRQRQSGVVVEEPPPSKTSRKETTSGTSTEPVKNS
T1 sequence (O75909 whole entry partner, the tested form may be a part): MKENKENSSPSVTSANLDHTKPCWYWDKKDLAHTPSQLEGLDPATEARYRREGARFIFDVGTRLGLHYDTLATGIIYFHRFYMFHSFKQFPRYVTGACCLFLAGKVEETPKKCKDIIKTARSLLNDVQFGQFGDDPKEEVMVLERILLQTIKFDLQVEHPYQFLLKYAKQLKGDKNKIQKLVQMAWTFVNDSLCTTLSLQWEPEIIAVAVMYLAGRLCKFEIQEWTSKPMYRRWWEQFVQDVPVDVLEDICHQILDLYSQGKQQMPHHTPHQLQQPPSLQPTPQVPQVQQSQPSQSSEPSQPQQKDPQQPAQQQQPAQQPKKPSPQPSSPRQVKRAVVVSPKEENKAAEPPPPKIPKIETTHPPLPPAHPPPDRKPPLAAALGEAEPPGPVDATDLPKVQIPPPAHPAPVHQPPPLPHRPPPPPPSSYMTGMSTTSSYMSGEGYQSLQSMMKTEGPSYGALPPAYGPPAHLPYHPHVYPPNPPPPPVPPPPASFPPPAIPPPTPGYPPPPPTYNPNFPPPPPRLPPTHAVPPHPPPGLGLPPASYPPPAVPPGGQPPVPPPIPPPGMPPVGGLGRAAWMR

For the compound `FC(F)(F)c1cnc(N[C@H]2CCCNC2)nc1-c1c[nH]c2ccc(-c3ccnnc3)cc12` [Compound 230], the IC50 in assay [1] was 200 to 5000 nM; in assay [2], 20 to 200 nM; in assay [3], less than 20 nM; in assay [4] it was 200 to 5000 nM; in assay [5], 200 to 5000 nM.
On to `CCc1cnc(NC2CCCNC2)nc1-c1c[nH]c2ncc(F)cc12` (stereo not shown) [Compound 231], for which the IC50 was not below 5000 nM in assay [1]; 200 to 5000 nM in assay [2]; not below 5000 nM in assay [3]; not below 5000 nM in assay [4]; not below 5000 nM in assay [5].
For the compound `N#Cc1cc(-c2ccc3c(-c4nc(NC5CCCNC5)ncc4C(F)(F)F)c[nH]c3c2)c[nH]1` (stereo not shown) [Compound 233], the IC50 in assay [1] is 200 to 5000 nM; in assay [2], 20 to 200 nM; in assay [3] it was less than 20 nM; in assay [4], 200 to 5000 nM; in assay [5], 200 to 5000 nM.
On to `CC(O)c1cnc(NC2CCCNC2)nc1-c1c[nH]c2ccccc12` (stereo not shown) [Compound 234], for which the IC50 is not below 5000 nM in assay [1]; less than 20 nM in assay [2]; 200 to 5000 nM in assay [3]; not below 5000 nM in assay [4]; not below 5000 nM in assay [5].
For the compound `Cc1nc(-c2ccc3c(-c4nc(NC5CCCNC5)ncc4C(F)(F)F)c[nH]c3c2)n[nH]1` (stereo not shown) [Compound 235], the IC50 is 200 to 5000 nM in assay [1]; 200 to 5000 nM in assay [2]; less than 20 nM in assay [3]; 200 to 5000 nM in assay [4]; 200 to 5000 nM in assay [5].
Regarding `FC1(F)CNC[C@@H](Nc2ncc(C(F)(F)F)c(-c3c[nH]c4ccccc34)n2)C1` [Compound 236], the IC50 in assay [1] was 200 to 5000 nM; in assay [2], 20 to 200 nM; in assay [3], less than 20 nM; in assay [4], 200 to 5000 nM; in assay [5] it was 200 to 5000 nM.
Consider `CC(O)c1cnc(NC2CCCNC2)nc1-c1c[nH]c2ccccc12` (stereo not shown) [Compound 238], for which the IC50 in assay [1] is not below 5000 nM; in assay [2], 200 to 5000 nM; in assay [3], 200 to 5000 nM; in assay [4], not below 5000 nM; in assay [5] it was not below 5000 nM.
On to `CC(O)c1cnc(NC2CCCNC2)nc1-c1c[nH]c2ccccc12` (stereo not shown) [Compound 239], for which the IC50 was not below 5000 nM in assay [1]; 200 to 5000 nM in assay [2]; 200 to 5000 nM in assay [3]; not below 5000 nM in assay [4]; not below 5000 nM in assay [5].
For the compound `CCCCCc1ccc2c(-c3nc(N[C@@H]4CCCNC4)ncc3C(F)(F)F)c[nH]c2c1` [Compound 241], the IC50 in assay [1] is 200 to 5000 nM; in assay [2] it was 20 to 200 nM; in assay [3] it was 20 to 200 nM; in assay [4] it was 200 to 5000 nM; in assay [5], 200 to 5000 nM.
On to `CC(C)(O)CCc1ccc2c(-c3nc(NC4CCCNC4)ncc3C(F)(F)F)c[nH]c2c1` (stereo not shown) [Compound 242], for which the IC50 is not below 5000 nM in assay [1]; 20 to 200 nM in assay [2]; 20 to 200 nM in assay [3]; 200 to 5000 nM in assay [4]; 200 to 5000 nM in assay [5].
As to `CC1(C)CNC[C@@H](Nc2ncc(C(F)(F)F)c(-c3c[nH]c4ccccc34)n2)C1` [Compound 243], the IC50 is 200 to 5000 nM in assay [1]; less than 20 nM in assay [2]; less than 20 nM in assay [3]; 200 to 5000 nM in assay [4]; 20 to 200 nM in assay [5].
Regarding `Cc1nc(-c2ccc3c(-c4nc(NC5CCCNC5)ncc4C(F)(F)F)c[nH]c3c2)nn1C` (stereo not shown) [Compound 245], the IC50 in assay [1] was 200 to 5000 nM; in assay [2], 20 to 200 nM; in assay [3] it was less than 20 nM; in assay [4], not below 5000 nM; in assay [5] it was 200 to 5000 nM.
In the case of `CC(O)c1cnc(NC2CCCNC2)nc1-c1c[nH]c2ccccc12` (stereo not shown) [Compound 247], the IC50 in assay [1] is not below 5000 nM; in assay [2], 200 to 5000 nM; in assay [3], 200 to 5000 nM; in assay [4], not below 5000 nM; in assay [5] it was not below 5000 nM.
On to `N#Cc1cn(-c2ccc3c(-c4nc(NC5CCCNC5)ncc4C(F)(F)F)c[nH]c3c2)cn1` (stereo not shown) [Compound 249], for which the IC50 in assay [1] is not below 5000 nM; in assay [2] it was 20 to 200 nM; in assay [3], less than 20 nM; in assay [4], not below 5000 nM; in assay [5], 200 to 5000 nM.

The values are drawn from patent US20230000870A1, “METHODS OF TREATING CANCER IN BIOMARKER-IDENTIFIED PATIENTS WITH INHIBITORS OF CYCLIN-DEPENDENT KINASE 7 (CDK7)” (Syros Pharmaceuticals, Inc., priority 2019, published 2023).
